Structures can show the parent of a compound that is named as a salt.
Assays:
[1] = target: T1, cloned human 5-HT1A-receptors (Homo sapiens, UniProt P08908); experiment: Inhibition of 3H-5-CT binding to human 5-HT1A receptors; details: transfected HeLa cells (HA7), 15 minutes at 37° C., pH 7.7; for inhibition at 0.05 µM: at 50 nM
T1 construct: expressed in transfected cells; host or cells: HeLa cells (HA7)
T1 sequence (P08908 1-422): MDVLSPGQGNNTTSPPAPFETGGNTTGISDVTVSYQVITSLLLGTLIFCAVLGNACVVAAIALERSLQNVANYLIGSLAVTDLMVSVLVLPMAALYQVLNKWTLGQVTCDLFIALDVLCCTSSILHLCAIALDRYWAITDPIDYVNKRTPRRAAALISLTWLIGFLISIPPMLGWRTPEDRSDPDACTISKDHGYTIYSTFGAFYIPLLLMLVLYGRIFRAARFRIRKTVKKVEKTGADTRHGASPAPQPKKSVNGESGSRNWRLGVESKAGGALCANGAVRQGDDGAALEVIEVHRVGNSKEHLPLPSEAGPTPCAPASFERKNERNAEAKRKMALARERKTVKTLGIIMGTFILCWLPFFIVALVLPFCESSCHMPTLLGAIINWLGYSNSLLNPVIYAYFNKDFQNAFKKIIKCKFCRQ
Protocol: The affinity of the compounds of the invention to 5-HT1A receptors was determined by measuring the inhibition of binding of a radioactive ligand at 5-HT1A-receptors as described in the following test:
Inhibition of ^3H-5-CT Binding to Human 5-HT1A Receptors.
By this method, the inhibition by drugs of the binding of the 5-HT1A-agonist ^3H-5-carboxamido tryptamine (^3H-5-CT) to cloned human 5-HT1A-receptors stably expressed in transfected HeLa cells (HA7) (Fargin, A. et al. J. Biol. Chem. 1989, 264, 14848) is determined in vitro. The assay was performed as a modification of the method described by Harrington, M. A. et al. J. Pharmacol. Exp. Ther. 1994, 268, 1098. Human 5-HT1A-receptors (40 μg of cell homogenate) were incubated for 15 minutes at 37° C. in 50 mM Tris buffer at pH 7.7 in the presence of ^3H-5-CT. Non-specific binding was determined by including 10 μM of metergoline. The reaction was terminated by rapid filtration through Unifilter GF/B filters on a Tomtec Cell Harvester. Filters were counted in a Packard Top Counter.

[2] = target: T2, human cloned dopamine D4.2-receptors (Homo sapiens, UniProt P21917, DEL265-296); experiment: Inhibition of the binding of 3H-YM-09151-2 to human dopamine D4 receptors; details: [3H]YM-09151-2 0.06 nM; for IC50: membranes of CHO-cells expressing human D4.2; for inhibition at 0.1 µM: at 100 nM, CHO-cell membranes, human D4.2
T2 construct: expressed in transfected cells; host or cells: CHO cells
T2 sequence (P21917 with tags, fused parts or gaps DEL265-296): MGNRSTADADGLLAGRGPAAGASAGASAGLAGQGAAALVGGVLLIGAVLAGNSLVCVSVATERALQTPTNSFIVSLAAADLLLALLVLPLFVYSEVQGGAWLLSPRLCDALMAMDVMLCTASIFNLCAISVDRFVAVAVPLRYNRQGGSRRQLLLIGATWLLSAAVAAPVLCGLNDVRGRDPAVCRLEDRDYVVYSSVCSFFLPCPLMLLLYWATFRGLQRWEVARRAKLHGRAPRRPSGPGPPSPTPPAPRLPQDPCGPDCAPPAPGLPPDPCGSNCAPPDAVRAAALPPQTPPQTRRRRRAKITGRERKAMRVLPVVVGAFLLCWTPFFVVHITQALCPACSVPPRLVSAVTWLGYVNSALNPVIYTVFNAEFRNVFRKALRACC
Protocol: Inhibition of the Binding of ^3H-YM-09151-2 to Human Dopamine D4 Receptors
By this method, the inhibition by drugs of the binding of [^3H]YM-09151-2 (0.06 nM) to membranes of human cloned dopamine D4.2-receptors expressed in CHO-cells is determined in vitro. Method modified from NEN Life Science Products, Inc., technical data certificate PC2533-10/96.

Compound	melting point	IC50 [1] [nM]	IC50 [2] [nM]	inhibition at 0.05 µM [1] [%]	inhibition at 0.1 µM [2] [%]
Cc1cccc(Cl)c1SCCCCN1CCN(c2cccc3[nH]ccc23)CC1 (as salt: oxalate) [Compound 2e, 4-{4-[4-(2-Chloro-6-methyl-phenylsulfanyl)-butyl]-piperazin-1-yl}-1H-indole]	199 to 210 °C				
Clc1cccc(Cl)c1SCCN1CCN(c2cccc3[nH]ccc23)CC1 (as salt: oxalate) [Compound 3b, 4-(4-[2-(2,6-Dichloro-phenylsulfanyl)-ethyl]-piperazin-1-yl)-1H-indole]	130 to 133 °C (dec.)				
Clc1ccccc1OCCCN1CCN(c2cccc3[nH]ccc23)CC1 [Compound 1, 4-{4-[3-(2-Chloro-phenoxy)-propyl]-piperazin-1-yl}-1H-indole]	189 to 199 °C	12	92		
Fc1ccc(OCCCCN2CCN(c3cccc4[nH]ccc34)CC2)c(Br)c1 (as salt: oxalate) [Compound 2d, 4-{4-[4-(2-Bromo-4-fluoro-phenoxy)-butyl]-piperazin-1-yl}-1H-indole]	218 to 220 °C				
Brc1ccccc1SCCCN1CCN(c2cccc3[nH]ccc23)CC1 [Compound 2b, 4-(4-[3-(2-Bromo-phenylsulfanyl)-propyl]-piperazin-1-yl}-1H-indole]		2.7	1.2		
Cc1cccc(C)c1OCCN1CCN(c2cccc3[nH]ccc23)CC1 [Compound 5aa, 4-{4-[2-(2,6-Dimethyl-phenoxy)-ethyl]-piperazin-1-yl}-1H-indole]				78	81
Clc1ccc(SCCN2CCN(c3cccc4[nH]ccc34)CC2)cc1Cl (as salt: oxalate) [Compound 3c, 4-{4-[2-(3,4-Dichloro-phenylsulfanyl)-ethyl]-piperazin-1-yl}-1H-indole]	140 to 141 °C				
FC(F)(F)Oc1ccc(SCCCN2CCN(c3cccc4[nH]ccc34)CC2)cc1 [Compound 5ax, 4-{4-[3-(4-Trifluoromethoxy-phenylsulfanyl)-propyl]-piperazin-1-yl}-1H-indole]				81	98
CCc1ccccc1OCCCCN1CCN(c2cccc3[nH]ccc23)CC1 [Compound 5ai, 4-{4-[4-(2-Ethyl-phenoxy)-butyl]-piperazin-1-yl}-1H-indole]				93	90
Brc1ccccc1SCCCN1CCN(c2cccc3[nH]ccc23)CC1 (as salt: oxalate) [Compound 2b, 4-(4-[3-(2-Bromo-phenylsulfanyl)-propyl]-piperazin-1-yl}-1H-indole]	163 to 166 °C				
Clc1cccc(Cl)c1SCCCN1CCN(c2cccc3[nH]ccc23)CC1 [Compound 4q, 4-{4-[3-(2,6-Dichloro-phenylsulfanyl)-propyl]-piperazin-1-yl}-1H-indole]		3.5	7.2		
Fc1cc(Cl)c(OCCCN2CCN(c3cccc4[nH]ccc34)CC2)c(Cl)c1 [Compound 4i, 4-{4-[3-(2,6-Dichloro-4-fluoro-phenoxy)-propyl]-piperazin-1-yl}-1H-indole]		1	16		
c1ccc(SCCCCN2CCN(c3cccc4[nH]ccc34)CC2)cc1 [Compound 5aj, 4-[4-(4-Phenylsulfanyl-butyl)-piperazin-1-yl]-1H-indole]				77	100
Brc1ccccc1OCCCN1CCN(c2cccc3[nH]ccc23)CC1 (as salt: oxalate) [Compound 2c, 4-{4-[3-(2-Bromo-phenoxy)-propyl]-piperazin-1-yl}-1H-indole]	206 to 208 °C				
Clc1ccc(Cl)c(OCCCCN2CCN(c3cccc4[nH]ccc34)CC2)c1 [Compound 5au, 4-{4-[4-(2,5-Dichloro-phenoxy)-butyl]-piperazin-1-yl}-1H-indole]				99	97
COc1ccccc1OCCCCN1CCN(c2cccc3[nH]ccc23)CC1 [Compound 5ba, 4-{4-[4-(2-Methoxy-phenoxy)-butyl]-piperazin-1-yl}-1H-indole]				83	80
CCC(=O)c1cc(F)c(OCCCN2CCN(c3cccc4[nH]ccc34)CC2)c(F)c1 [Compound 4n, 1-(3,5-Difluoro-4-{3-[4-(1H-indol-4-yl)-piperazin-1-yl]-propoxy}-phenyl)-propan-1-one]		0.72	230		
Fc1cc(Br)cc(F)c1OCCCN1CCN(c2cccc3[nH]ccc23)CC1 [Compound 4m, 4-{4-[3-(4-Bromo-2,6-difluoro-phenoxy)-propyl]-piperazin-1-yl}-1H-indole]		1	39		
Cc1cccc(Cl)c1SCCCCN1CCN(c2cccc3[nH]ccc23)CC1 [Compound 4f]		5.8	3		
Fc1ccc(OCCCCN2CCN(c3cccc4[nH]ccc34)CC2)c(Br)c1 [Compound 2d, 4-{4-[4-(2-Bromo-4-fluoro-phenoxy)-butyl]-piperazin-1-yl}-1H-indole]		6.4	1.6		
Clc1ccc(Cl)c(SCCN2CCN(c3cccc4[nH]ccc34)CC2)c1 [Compound 5al, 4-{4-[2-(2,5-Dichloro-phenylsulfanyl)-ethyl]-piperazin-1-yl}-1H-indole]				92	96
Brc1cccc(SCCCN2CCN(c3cccc4[nH]ccc34)CC2)c1 [Compound 5ay, 4-{4-[3-(3-Bromo-phenylsulfanyl)-propyl]-piperazin-1-yl}-1H-indole]				96	105
Clc1cccc(SCCN2CCN(c3cccc4[nH]ccc34)CC2)c1Cl [Compound 5ad, 4-{4-[2-(2,3-Dichloro-phenylsulfanyl)-ethyl]-piperazin-1-yl}-1H-indole]			4.1	76	
FC(F)(F)c1ccccc1SCCCN1CCN(c2cccc3[nH]ccc23)CC1 [Compound 5af, 4-{4-[3-(2-Trifluoromethyl-phenylsulfanyl)-propyl]-piperazin-1-yl}-1H-indole]			7.2	93	
Clc1cccc(SCCN2CCN(c3cccc4[nH]ccc34)CC2)c1 [Compound 5am, 4-{4-[2-(3-Chloro-phenylsulfanyl)-ethyl]-piperazin-1-yl}-1H-indole]				93	83
Fc1ccc(OCCCN2CCN(c3cccc4[nH]ccc34)CC2)c(Cl)c1 [Compound 4e, 4-{4-[3-(2-Chloro-4-fluoro-phenoxy)-propyl]-piperazin-1-yl}-1H-indole]		4.9	2		
Brc1cc(Br)c(OCCCN2CCN(c3cccc4[nH]ccc34)CC2)c(Br)c1 [Compound 4l, 14-{4-[3-(2,4,6-Tribromo-phenoxy)-propyl]-piperazin-1-yl}-1H-indole]		1.1	28		

— patent US20030050307A1, “Novel indole derivatives” (H. Lundbeck A/S, priority 1999, published 2003)
